Reference: ChEMBL document CHEMBL1201862, “PubChem BioAssay data set” (2004)
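Each compound was tested at five concentrations against cells in 96-well plates for 48 hours. Abbreviation: GI50, concentration required for 50% inhibition of growth.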 Activity calls are given as the source filed them. No stated cut-off is given here; in the data, active = GI50 up to about 1.1 µM and inactive = higher.

Legend:
Experiment in all cases: NCI-60 cell line screen, 48 h
[1] = system: OVCAR-4
[2] = system: SW-620
[3] = system: SK-MEL-28
[4] = system: UACC-62
[5] = system: HT-29
[6] = system: HOP-92
[7] = system: SK-OV-3
[8] = system: COLO 205
[9] = system: HCT-15
[10] = system: LOX IMVI
[11] = system: HCC 2998
[12] = system: NCI-H226
[13] = system: SF-268
[14] = system: SK-MEL-2
[15] = system: SF-295
[16] = system: OVCAR-3
[17] = system: NCI-H23
[18] = system: NCI-H522
[19] = system: 786-0
[20] = system: HL-60

Row | Structure (SMILES) | GI50 [1] | GI50 [2] | GI50 [3] | GI50 [4] | GI50 [5] | GI50 [6] | GI50 [7] | GI50 [8] | GI50 [9] [µM] | GI50 [10] | GI50 [11] | GI50 [12] | GI50 [13] | GI50 [14] | GI50 [15] | GI50 [16] | GI50 [17] | GI50 [18] | GI50 [19] | GI50 [20]
1 | O=C1OC(c2ccccc2)(c2ccccc2)c2ccc3ccc(F)cc3c21 | > 100 µM (inactive) | 23.9 µM (inactive) | > 100 µM (inactive) | 26.9 µM (inactive) | 13.6 µM (inactive) | 2.66 µM (inactive) | > 100 µM (inactive) | > 100 µM (inactive) | 35.5 | 60.3 µM (inactive) | 37.2 µM (inactive) | > 100 µM (inactive) | > 100 µM (inactive) | > 100 µM (inactive) | 13 µM (inactive) | 68.7 µM (inactive) | 52.8 µM (inactive) | 51.1 µM (inactive) | > 100 µM (inactive) | 9.4 µM (inactive)
2 | CCCCCCCCCCCCCCCCNc1ccn(C2CC(OP(=O)(O)OCC3OC(n4cc(CC)c(=O)[nH]c4=O)CC3O)C(CO)O2)c(=O)n1 (stereo not drawn) | > 100 µM (inactive) | 23.8 µM (inactive) | 21.4 µM (inactive) | 18 µM (inactive) | 21.6 µM (inactive) | 48.4 µM (inactive) | 27.3 µM (inactive) | 26 µM (inactive) | 28.1 | 44.7 µM (inactive) | 24.5 µM (inactive) | 47.2 µM (inactive) | 15.3 µM (inactive) | 19.4 µM (inactive) | 18.7 µM (inactive) | 38.3 µM (inactive) | 34.6 µM (inactive) | 36.4 µM (inactive) | 83.2 µM (inactive) | 4.66 µM (inactive)
3 | CC1(C)OC[C@@H]([C@@]2(COC(c3ccccc3)(c3ccccc3)c3ccccc3)CC=CC(=O)O2)O1 | 28.2 µM (inactive) | 40.1 µM (inactive) | 32 µM (inactive) | 28 µM (inactive) | 35 µM (inactive) | 19.4 µM (inactive) | 38.8 µM (inactive) | 20.1 µM (inactive) | 31.1 | 32.4 µM (inactive) | 19 µM (inactive) | 32.7 µM (inactive) | 45.5 µM (inactive) | 11.2 µM (inactive) | 36.5 µM (inactive) | 35.2 µM (inactive) | 42.1 µM (inactive) | 18.4 µM (inactive) | 35.1 µM (inactive) | 33.7 µM (inactive)
4 | CCCCC1(C2c3ccccc3Oc3ccccc32)C(=O)N(c2ccccc2)N(c2ccccc2)C1=O | 60.1 µM (inactive) | 56.6 µM (inactive) | > 100 µM (inactive) | > 89.3 µM (inactive) | 77.1 µM (inactive) | 97.5 µM (inactive) | > 100 µM (inactive) | > 100 µM (inactive) | 41.3 | 41 µM (inactive) | > 41.1 µM (inactive) | > 80.9 µM (inactive) | > 79.1 µM (inactive) | > 100 µM (inactive) | > 92.7 µM (inactive) | 42.3 µM (inactive) | 32.1 µM (inactive) | 3.79 µM (inactive) |  | 21.9 µM (inactive)
5 | CC(C)(C)OC(=O)NC(Cc1ccccc1)C(=S)N1CCCC1 (stereo not drawn) | 86.3 µM (inactive) | > 100 µM (inactive) | > 100 µM (inactive) | > 80.4 µM (inactive) | 85.7 µM (inactive) | 31.7 µM (inactive) | > 100 µM (inactive) | > 100 µM (inactive) | 75.5 | > 87.9 µM (inactive) | > 100 µM (inactive) | > 100 µM (inactive) | > 100 µM (inactive) | > 100 µM (inactive) | 95.3 µM (inactive) | > 100 µM (inactive) | 48.8 µM (inactive) | 25 µM (inactive) | > 100 µM (inactive) | 89.5 µM (inactive)
6 | O=C(c1cccs1)N1CCN(C(=O)c2cccs2)C1=S | 16.9 µM (inactive) | 5.01 µM (inactive) | 5.13 µM (inactive) | 5.89 µM (inactive) | 6.71 µM (inactive) | 7.19 µM (inactive) | 15.6 µM (inactive) | 7.35 µM (inactive) | 3.99 | 2.86 µM (inactive) | 7.96 µM (inactive) | 15.8 µM (inactive) | 5.28 µM (inactive) | 11.9 µM (inactive) | 16.4 µM (inactive) | 2.94 µM (inactive) | 12.7 µM (inactive) | 3.98 µM (inactive) | 2.75 µM (inactive) | 2.23 µM (inactive)
7 | NCCCNCCSP(=O)(O)O [AMIFOSTINE] | > 635 µM (inactive) | > 750 µM (inactive) | > 750 µM (inactive) | > 710 µM (inactive) | > 750 µM (inactive) | > 750 µM (inactive) | > 750 µM (inactive) | 385 µM (inactive) | > 274 | 270 µM (inactive) | > 733 µM (inactive) | > 703 µM (inactive) | > 750 µM (inactive) | > 242 µM (inactive) | > 750 µM (inactive) | > 750 µM (inactive) | > 750 µM (inactive) | 389 µM (inactive) |  | 176 µM (inactive)
